Source: patent US12559529B2, “NPY2 receptor agonists” (Boehringer Ingelheim International GmbH, priority 2019, dated 2026)
*1 amine or outer side, *2 acyl side, *3 side chain or, on linkers, in order; H or OH if unused. Where a SMILES comes first, the peptide text is derived from it. Side-chain parts run from the residue outwards. The star is where a group is joined. C18 diacid = O=C(O)CCCCCCCCCCCCCCCCC(=O)*; γGlu = O=C(O)[C@H](CCC(=O)[*:2])N[*:1]; Isovaleryl = CC(C)CC(=O)*; AEEA = NCCOCCOCC(=O)O

Molecular target: T1, Human Neuropeptide Y2 Receptor (Homo sapiens, UniProt P49146)
T1 construct: purchased CHEMICON HTS066M
T1 sequence (P49146 1-381): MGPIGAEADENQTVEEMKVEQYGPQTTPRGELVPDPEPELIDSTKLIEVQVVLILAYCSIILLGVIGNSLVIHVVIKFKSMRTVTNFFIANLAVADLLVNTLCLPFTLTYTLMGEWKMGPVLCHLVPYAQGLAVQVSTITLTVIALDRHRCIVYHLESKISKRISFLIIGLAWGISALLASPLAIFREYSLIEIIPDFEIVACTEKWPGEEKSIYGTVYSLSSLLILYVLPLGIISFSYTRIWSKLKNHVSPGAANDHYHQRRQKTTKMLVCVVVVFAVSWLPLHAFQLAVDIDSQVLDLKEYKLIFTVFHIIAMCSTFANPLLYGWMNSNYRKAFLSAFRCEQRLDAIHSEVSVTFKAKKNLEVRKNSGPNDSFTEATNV
Test: Radioligand binding competition assay (RLB)
Settings: Table 3; human 125I-PYY (1-36) 0.02 nM, Y2 receptor membranes; read-out: Ki
How it was run: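 Peptide dilutions made in pH 7.4 HEPES assay buffer with 0.2% ovalbumin; human Y2 receptor membranes added at 0.5 μg protein/well; plates shaken 2 h at room temperature; reaction stopped by vacuum filtration onto PEI-treated GF/C filters with ice-cold high-salt washes; radioactivity counted by scintillation.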

SMILES	Ki [nM]
CC(C)CC(=O)N[C@@H](C)C(=O)N1CCC[C@H]1C(=O)N[C@@H](CCC(=O)O)C(=O)N[C@@H](CCCCNC(=O)COCCOCCNC(=O)COCCOCCNC(=O)CC[C@H](NC(=O)CCCCCCCCCCCCCCCCC(=O)O)C(=O)O)C(=O)N1CCC[C@H]1C(=O)N[C@@H](CCC(=O)O)C(=O)N[C@@H](CCC(=O)O)C(=O)N[C@@H](CC(=O)O)C(=O)N[C@@H](C)C(=O)N[C@H](C(=O)N1CCC[C@H]1C(=O)N[C@@H](CCC(=O)O)C(=O)N[C@@H](CCC(=O)O)C(=O)N[C@H](C(=O)N[C@@H](CCC(N)=O)C(=O)N[C@@H](CCCNC(=N)N)C(=O)N[C@@H](Cc1ccc(O)cc1)C(=O)N[C@@H](Cc1ccc(O)cc1)C(=O)N[C@H](C(=O)N[C@@H](CO)C(=O)N[C@@H](CC(C)C)C(=O)N[C@@H](CCCNC(=N)N)C(=O)N[C@@H](Cc1c[nH]cn1)C(=O)N[C@@H](Cc1ccc(O)cc1)C(=O)N[C@@H](Cc1ccc(O)cc1)C(=O)N[C@@H](CC(N)=O)C(=O)N[C@@H](Cc1c[nH]c2ccccc12)C(=O)N[C@@H](CC(C)C)C(=O)N[C@H](C(=O)N[C@@H](CCCNC(=N)N)C(=O)N[C@@H](CCC(N)=O)C(=O)N[C@@H](CCCNC(=N)N)C(=O)N[C@@H](Cc1ccc(O)cc1)C(N)=O)[C@@H](C)O)C(C)C)[C@@H](C)O)[C@@H](C)O [Compound 40, N{alpha-4}-(3-methylbutanoyl)-N{epsilon-7}-[2-(2-{2-[2-(2-{2-[(4S)-4-carboxy-4-(17-carboxyheptadecanamido)butanamido]ethoxy}ethoxy)acetamido]ethoxy}ethoxy)acetamido]-[4A,7K,9E,13T,17T,18Q,22V,28Y,30W,31L]hPYY (4-36)]	1.21
CC(C)CC(=O)N[C@@H](C)C(=O)N1CCC[C@H]1C(=O)N[C@@H](CCC(=O)O)C(=O)N[C@@H](CCCCNC(=O)COCCOCCNC(=O)COCCOCCNC(=O)CC[C@H](NC(=O)CCCCCCCCCCCCCCCCC(=O)O)C(=O)O)C(=O)N1CCC[C@H]1C(=O)N[C@@H](CCC(=O)O)C(=O)N[C@@H](C)C(=O)N1CCC[C@H]1C(=O)N[C@@H](C)C(=O)N[C@@H](CO)C(=O)N1CCC[C@H]1C(=O)N[C@@H](CCC(=O)O)C(=O)N[C@@H](CCC(=O)O)C(=O)N[C@@H](CC(C)C)C(=O)N[C@@H](CCC(N)=O)C(=O)N[C@@H](CCCNC(=N)N)C(=O)N[C@@H](Cc1ccc(O)cc1)C(=O)N[C@@H](Cc1ccc(O)cc1)C(=O)N[C@H](C(=O)N[C@@H](CO)C(=O)N[C@@H](CC(C)C)C(=O)N[C@@H](CCCNC(=N)N)C(=O)N[C@@H](Cc1c[nH]cn1)C(=O)N[C@@H](Cc1ccc(O)cc1)C(=O)N[C@@H](Cc1ccc(O)cc1)C(=O)N[C@@H](CC(N)=O)C(=O)N[C@@H](Cc1c[nH]c2ccccc12)C(=O)N[C@@H](CC(C)C)C(=O)N[C@H](C(=O)N[C@@H](CCCNC(=N)N)C(=O)N[C@@H](CCC(N)=O)C(=O)N[C@@H](CCCNC(=N)N)C(=O)N[C@@H](Cc1ccc(O)cc1)C(N)=O)[C@@H](C)O)C(C)C [Compound 43, N{alpha-4}-(3-methylbutanoyl)-N{epsilon-7}-[2-(2-{2-[2-(2-{2-[(4S)-4-carboxy-4-(17-carboxyheptadecanamido)butanamido]ethoxy}ethoxy)acetamido]ethoxy}ethoxy)acetamido]-[4A,7K,9E,10A,11P,18Q,22V,28Y,30W,31L]hPYY (4-36)] (Isovaleryl-APEK([AEEA-AEEA-γGlu-C18 diacid])PEAPASPEELQRYYVSLRHYYNWLTRQRY-NH2)	0.4

Further lines, results first:

Ki [nM]	SMILES
5.92	CC(C)CC(=O)N[C@@H](C)C(=O)N1CCC[C@H]1C(=O)N[C@@H](CCC(=O)O)C(=O)N[C@@H](CCCCNC(=O)COCCOCCNC(=O)COCCOCCNC(=O)CC[C@H](NC(=O)CCCCCCCCCCCCCCCCC(=O)O)C(=O)O)C(=O)N1CCC[C@H]1C(=O)N[C@@H](CCC(=O)O)C(=O)N[C@@H](CCC(=O)O)C(=O)N[C@@H](C)C(=O)N[C@@H](C)C(=O)N[C@@H](CO)C(=O)N1CCC[C@H]1C(=O)N[C@@H](CCC(=O)O)C(=O)N[C@@H](CCC(=O)O)C(=O)N[C@@H](CC(C)C)C(=O)N[C@@H](CCC(N)=O)C(=O)N[C@@H](CCCNC(=N)N)C(=O)N[C@@H](Cc1ccc(O)cc1)C(=O)N[C@@H](Cc1ccc(O)cc1)C(=O)N[C@H](C(=O)N[C@@H](CO)C(=O)N[C@H](C(=O)N[C@@H](CCCNC(=N)N)C(=O)N[C@@H](Cc1c[nH]cn1)C(=O)N[C@@H](Cc1ccc(O)cc1)C(=O)N[C@@H](Cc1ccc(O)cc1)C(=O)N[C@@H](CC(N)=O)C(=O)N[C@@H](Cc1c[nH]c2ccccc12)C(=O)N[C@@H](CC(C)C)C(=O)N[C@H](C(=O)N[C@@H](CCCNC(=N)N)C(=O)N[C@@H](CCC(N)=O)C(=O)N[C@@H](CCCNC(=N)N)C(=O)N[C@@H](Cc1ccc(O)cc1)C(N)=O)[C@@H](C)O)[C@@H](C)O)C(C)C [Compound 42, N{alpha-4}-(3-methylbutanoyl)-N{epsilon-7}-[2-(2-{2-[2-(2-{2-[(4S)-4-carboxy-4-(17-carboxyheptadecanamido)butanamido]ethoxy}ethoxy)acetamido]ethoxy}ethoxy)acetamido]-[4A,7K,9E,11A,18Q,22V,24T,28Y,30W,31L]hPYY (4-36)] (Isovaleryl-APEK([AEEA-AEEA-γGlu-C18 diacid])PEEAASPEELQRYYVSTRHYYNWLTRQRY-NH2)
4.44	CC[C@H](C)[C@H](NC(=O)[C@H](Cc1c[nH]c2ccccc12)NC(=O)[C@H](CC(N)=O)NC(=O)[C@H](Cc1ccc(O)cc1)NC(=O)[C@H](Cc1ccc(O)cc1)NC(=O)[C@H](Cc1c[nH]cn1)NC(=O)[C@H](CCCNC(=N)N)NC(=O)[C@H](CC(C)C)NC(=O)[C@H](CO)NC(=O)[C@@H](NC(=O)[C@H](Cc1ccc(O)cc1)NC(=O)[C@H](Cc1ccc(O)cc1)NC(=O)[C@H](CCCNC(=N)N)NC(=O)[C@H](CCC(N)=O)NC(=O)[C@H](CC(C)C)NC(=O)[C@H](CCC(=O)O)NC(=O)[C@H](CCC(=O)O)NC(=O)[C@@H]1CCCN1C(=O)[C@H](CO)NC(=O)[C@H](C)NC(=O)[C@H](CCC(=O)O)NC(=O)[C@H](CCC(=O)O)NC(=O)[C@H](CCC(=O)O)NC(=O)[C@@H]1CCCN1C(=O)[C@H](CCCCNC(=O)COCCOCCNC(=O)COCCOCCNC(=O)CC[C@H](NC(=O)CCCCCCCCCCCCCCCCC(=O)O)C(=O)O)NC(=O)[C@H](CCC(=O)O)NC(=O)[C@@H]1CCCN1C(=O)[C@H](C)NC(=O)CC(C)C)C(C)C)C(=O)N[C@H](C(=O)N[C@@H](CCCNC(=N)N)C(=O)N[C@@H](CCC(N)=O)C(=O)N[C@@H](CCCNC(=N)N)C(=O)N[C@@H](Cc1ccc(O)cc1)C(N)=O)[C@@H](C)O [Compound 44, N{alpha-4}-(3-methylbutanoyl)-N{epsilon-7}-[2-(2-{2-[2-(2-{2-[(4S)-4-carboxy-4-(17-carboxyheptadecanamido)butanamido]ethoxy}ethoxy)acetamido]ethoxy}ethoxy)acetamido]-[4A,7K,9E,11E,18Q,22V,28Y,30W,31I]hPYY (4-36)]
3.97	CC(C)CC(=O)N[C@@H](C)C(=O)N1CCC[C@H]1C(=O)N[C@@H](CCC(=O)O)C(=O)N[C@@H](CCCCNC(=O)COCCOCCNC(=O)COCCOCCNC(=O)CC[C@H](NC(=O)CCCCCCCCCCCCCCCCC(=O)O)C(=O)O)C(=O)N1CCC[C@H]1C(=O)N[C@@H](CCC(=O)O)C(=O)N[C@@H](CCC(=O)O)C(=O)N[C@@H](CCC(=O)O)C(=O)N[C@@H](C)C(=O)N[C@@H](CO)C(=O)N1CCC[C@H]1C(=O)N[C@@H](CCC(=O)O)C(=O)N[C@@H](CO)C(=O)N[C@@H](CC(C)C)C(=O)N[C@@H](CCC(N)=O)C(=O)N[C@@H](CCCNC(=N)N)C(=O)N[C@@H](Cc1ccc(O)cc1)C(=O)N[C@@H](Cc1ccc(O)cc1)C(=O)N[C@H](C(=O)N[C@@H](CO)C(=O)N[C@@H](CC(C)C)C(=O)N[C@@H](CCCNC(=N)N)C(=O)N[C@@H](Cc1c[nH]cn1)C(=O)N[C@@H](Cc1ccc(O)cc1)C(=O)N[C@@H](Cc1ccc(O)cc1)C(=O)N[C@@H](CC(N)=O)C(=O)N[C@@H](Cc1c[nH]c2ccccc12)C(=O)N[C@@H](CC(C)C)C(=O)N[C@H](C(=O)N[C@@H](CCCNC(=N)N)C(=O)N[C@@H](CCC(N)=O)C(=O)N[C@@H](CCCNC(=N)N)C(=O)N[C@@H](Cc1ccc(O)cc1)C(N)=O)[C@@H](C)O)C(C)C [Compound 45, N{alpha-4}-(3-methylbutanoyl)-N{epsilon-7}-[2-(2-{2-[2-(2-{2-[(4S)-4-carboxy-4-(17-carboxyheptadecanamido)butanamido]ethoxy}ethoxy)acetamido]ethoxy}ethoxy)acetamido]-[4A,7K,9E,11E,16S,18Q,22V,28Y,30W,31L]hPYY (4-36)] (Isovaleryl-APEK([AEEA-AEEA-γGlu-C18 diacid])PEEEASPESLQRYYVSLRHYYNWLTRQRY-NH2)
